Target: T1, Dual specificity protein kinase TTK (Homo sapiens, UniProt P33981)
T1 sequence (P33981 whole entry): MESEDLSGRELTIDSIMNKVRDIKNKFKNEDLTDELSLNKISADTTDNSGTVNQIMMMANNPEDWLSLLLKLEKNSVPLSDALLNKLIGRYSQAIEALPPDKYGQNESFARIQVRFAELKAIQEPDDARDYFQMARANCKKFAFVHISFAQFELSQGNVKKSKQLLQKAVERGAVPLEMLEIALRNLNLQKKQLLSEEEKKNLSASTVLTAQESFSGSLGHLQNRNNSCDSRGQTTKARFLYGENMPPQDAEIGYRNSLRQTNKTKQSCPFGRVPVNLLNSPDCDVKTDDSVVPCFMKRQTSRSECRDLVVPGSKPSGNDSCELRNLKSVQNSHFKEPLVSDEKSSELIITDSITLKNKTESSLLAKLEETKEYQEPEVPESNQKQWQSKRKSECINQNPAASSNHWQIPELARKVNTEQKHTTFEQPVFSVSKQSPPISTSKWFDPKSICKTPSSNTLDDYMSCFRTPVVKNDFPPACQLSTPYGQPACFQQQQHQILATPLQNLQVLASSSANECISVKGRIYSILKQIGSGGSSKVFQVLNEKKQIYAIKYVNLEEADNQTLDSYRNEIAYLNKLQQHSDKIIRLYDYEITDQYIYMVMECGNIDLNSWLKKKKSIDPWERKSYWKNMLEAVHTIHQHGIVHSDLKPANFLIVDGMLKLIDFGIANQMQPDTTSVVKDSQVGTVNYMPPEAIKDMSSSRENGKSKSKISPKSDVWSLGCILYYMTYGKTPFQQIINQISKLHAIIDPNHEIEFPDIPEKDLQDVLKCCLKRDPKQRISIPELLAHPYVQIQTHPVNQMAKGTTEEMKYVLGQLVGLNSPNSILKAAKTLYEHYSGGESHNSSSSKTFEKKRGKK
Experiment: The concentration of Mps-1 in the assay was adjusted to the activity of the enzyme lot and was chosen appropriate to have the assay in the linear range, typical enzyme concentrations were in the range of about 1 nM (final conc. in the 5 μl assay volume).

Compound: COc1cc(C(=O)N2CC3(COC3)C2)ccc1Nc1nc2ccc(-c3ccc(C(=O)NCc4ccc(F)cc4)nc3)cn2n1
- IC50: < 1 nM

— ChEMBL document CHEMBL5725462, “Substituted triazolopyridines” (2017)
